Reference: patent publication US8470811B2, “Substituted heterocyclylbenzylpyrazoles and use thereof” (Bayer Intellectual Property GmbH, priority 2010, dated 2013)

Experiments:
[1] = Pharmacokinetic parameters after peroral administration in rats; type: in vivo; conditions: for half-life: rat, plasma, po
Description: (§1) The substance to be examined was administered to animals (for example mice or rats) intravenously as a solution (for example in corresponding plasma with a small addition of DMSO or in a PEG/ethanol/water mixture), and peroral administration was effected as a solution (for example in Solutol/ethanol/water or PEG/ethanol/water mixtures) or as a suspension (e.g. in tylose), in each case via a gavage. After administration of the substance, blood was taken from the animals at fixed times. The blood was heparinized, then plasma was obtained therefrom by centrifugation. The substance was quantified analytically in the plasma via LC-MS/MS. From the plasma concentration/time plots determined in this way, using an internal standard and with the aid of a validated computer program, the pharmacokinetic parameters, such as AUC (area under the concentration/time curve), Cmax (maximum plasma concentration), t1/2 (half life), VSS (distribution volume) and CL (clearance), and the absolute and relative bioavailability F and Frel (i.v./p.o. comparison or comparison of suspension to solution after p.o. administration), were calculated.
To determine the active ingredient release from a prodrug compound, the prodrug was administered either intravenously or perorally, as described above, and the concentrations both of the prodrug and of the active ingredient released were quantified in the processed plasma.
The substance to be examined was administered perorally to rats, in each case in amounts between 1 and 3 mg/kg as a solution in Solutol/ethanol/water (40:10:50 or 40:20:40). The kinetic parameters determined for Working Example 1 are shown below by way of example for the inventive compounds [AUCnorm=dose-normalized exposure (area under the concentration/time curve)]:
The second row in this table gives the pharmacokinetic parameters for Example 1, as obtained after peroral administration of the prodrug compound from Example 15 (1 mg/kg of crystalline substance as a tylose suspension in water).

[2] = pH-dependent hydrolysis stability; type: physicochemical
Description: 0.3 mg of the test substance (prodrug) was weighed into a 2 ml HPLC vial, and 0.6 ml of acetonitrile or acetonitrile/DMSO mixture (with up to 20 percent by volume of DMSO) was added. To dissolve the substance, the sample vessel was placed into an ultrasound bath for approx. 10 seconds. Subsequently, 1.0 ml of the particular aqueous buffer solution was added (commercially available buffer solutions of pH 2, 4, 6.5, 8 and 10) and the sample was treated again in the ultrasound bath. Over a period of 24 hours at 37° C., 5 μl of the sample solution were analysed by HPLC every hour for its content of unchanged prodrug or active ingredient released therefrom by hydrolysis. Quantification was effected via the area percentages of the corresponding HPLC peaks.

[3] = Pharmacokinetic parameters after intravenous administration in rats; type: in vivo; conditions: for half-life / Vd / clearance: rat, iv, 0.3-1.0 mg/kg, solution in plasma with up to 2% DMSO; for Vd: read-out: VSS; for clearance: read-out: CLplasma (converted)
Description: as §1
The substance to be examined was administered intravenously to rats, in each case in amounts between 0.3 and 1.0 mg/kg as a solution in plasma which contained up to 2% DMSO.

[4] = rats, 1-3 mg/kg, solution in Solutol/ethanol/water
[5] = rats, p.o., 1-3 mg/kg, solution in Solutol/ethanol/water

Cc1cc(-c2nc(-c3ccc(OC(F)(F)F)cc3)no2)nn1Cc1cccc(N2CC(OC(=O)CN(C)C)C2)c1 [Example 15, 1-{3-[(5-Methyl-3-{3-[4-(trifluoromethoxy)phenyl]-1,2,4-oxadiazol-5-yl}-1H-pyrazol-1-yl)methyl]phenyl}azetidin-3-yl N,N-dimethylglycinate]
prodrug compound itself in the plasma of the rats ([1]; after p.o. administration of Example 15, 1 mg/kg tylose suspension, all times examined): not detectable
% Example 15 prodrug ([2]; pH 2, 37° C., 12 h): 89%
% Example 15 prodrug ([2]; pH 4, 37° C., 12 h): 89%
% Example 15 prodrug ([2]; pH 6.5, 37° C., 0 h): 94%
% Example 15 prodrug ([2]; pH 6.5, 37° C., 2 h): 91%
% Example 15 prodrug ([2]; pH 6.5, 37° C., 4 h): 87%
% Example 15 prodrug ([2]; pH 6.5, 37° C., 6 h): 84%
% Example 15 prodrug ([2]; pH 6.5, 37° C., 12 h): 73%
% Example 15 prodrug ([2]; pH 6.5, 37° C., 24 h): 56%
% Example 15 prodrug ([2]; pH 8, 37° C., 12 h): 64%
% Example 15 prodrug ([2]; pH 10, 37° C., 12 h): 0%
% Example 1 active ingredient ([2]; released from Example 15, pH 2, 37° C., 12 h): 6%
% Example 1 active ingredient ([2]; released from Example 15, pH 4, 37° C., 12 h): 9%
% Example 1 active ingredient ([2]; released from Example 15, pH 6.5, 37° C., 0 h): 3%
% Example 1 active ingredient ([2]; released from Example 15, pH 6.5, 37° C., 2 h): 7%
% Example 1 active ingredient ([2]; released from Example 15, pH 6.5, 37° C., 4 h): 10%
% Example 1 active ingredient ([2]; released from Example 15, pH 6.5, 37° C., 6 h): 13%
% Example 1 active ingredient ([2]; released from Example 15, pH 6.5, 37° C., 12 h): 22%
% Example 1 active ingredient ([2]; released from Example 15, pH 6.5, 37° C., 24 h): 35%
% Example 1 active ingredient ([2]; released from Example 15, pH 8, 37° C., 12 h): 30%
% Example 1 active ingredient ([2]; released from Example 15, pH 10, 37° C., 12 h): 78%

Cc1ccc(Cn2nc(-c3nc(-c4ccc(OC(F)(F)F)cc4)no3)cc2C)cc1 [Example 1 in WO 2008/141731-A2, 5-[5-methyl-1-(4-methylbenzyl)-1H-pyrazol-3-yl]-3-[4-(trifluoromethoxy)phenyl]-1,2,4-oxadiazole, reference compound]
CLplasma ([3]; intravenous administration): 0.4 I/h/kg
half-life [3]: 30 h
Vd [3]: 6.9 L/kg
half-life [1, 4]: 29 h
AUCnorm [1, 5]: 1.9 kg·h/L
F [1, 5]: 74%

Cc1cc(-c2nc(-c3ccc(OC(F)(F)F)cc3)no2)nn1Cc1cccc(N2CC(O)C2)c1 [Example 1, 1-{3-[(5-Methyl-3-{3-[4-(trifluoromethoxy)phenyl]-1,2,4-oxadiazol-5-yl}-1H-pyrazol-1-yl)methyl]phenyl}azetidin-3-ol]
half-life [3]: 6.8 h
clearance [3]: 26.7 mL/min/kg
Vd [3]: 12 L/kg
AUCnorm ([1]; Example 1 in rat plasma after p.o. administration of prodrug Example 15, 1 mg/kg crystalline substance as tylose suspension in water): 0.35 kg·h/L
half-life [1, 4]: 12 h
AUCnorm [1, 5]: 0.43 kg·h/L
F [1, 5]: 68%

Cc1cc(-c2nc(-c3ccc(SC(F)(F)F)cc3)no2)nn1Cc1cccc(N2CCC(O)CC2)c1 [Example 14, 1-(3-{[5-Methyl-3-(3-{4-[(trifluoromethyl)sulphanyl]phenyl}-1,2,4-oxadiazol-5-yl)-1H-pyrazol-1-yl]methyl}phenyl)piperidin-4-ol]
half-life [3]: 8.2 h
clearance [3]: 12 mL/min/kg
Vd [3]: 7.8 L/kg
